Data reported in patent US6369003B1, “Process and composition for soil improvement by reducing microbially formed ethylene in the soil” (BASF Aktiengesellschaft, priority 1994, dated 2002).

Assays:
[1] = system: Soybeans (A 5403); assay: Soybeans test 3d: root nodules, root and shoot biomass, greenhouse; type: in vivo, Glycine max; settings: 30 days after treatment; for Nodules: untreated 38.3; for Dry matter root: untreated 1955; for Dry matter shoot: untreated 3616
Description: (§1) In these tests various types of non-sterile soils were used. The cultivation of the plants was carried out under greenhouse or climatic chamber conditions. The active compounds according to the invention were applied uniformly distributed over the soil surface in an aqueous preparation after the emergence of the respective test plants. The supply of water for the plants was carrried out using the same technique, always paying attention to uniform moistness of the soil. In the case of the cultivation of legumes, defined amounts of species-specific Rhizobia were admixed to the soil. In some cases inoculation was also carried out by seed treatment. d) Soybeans (A 5403) were cultivated under greenhouse conditions in low N, sandy loam soil in plastic pots (750 ml) and watered from above as required. A few days after emergence the plants were thinned out to 3 plants per pot. In 5 pots in each case 25 ml each of an aqueous preparation of one concentration of 2.3.1.3 were applied by watering. 5 pots remained untreated. 30 days after treatment the following results were obtained: […]

[2] = system: Lucerne plants (Maricopa); assay: Lucerne: root nodules and shoot biomass, greenhouse; type: in vivo, Medicago sativa; settings: 25 days after treatment; for Root nodules: untreated 10.5; for Dry matter shoot: untreated 180
Description: (§2) In these tests various types of non-sterile soils were used. The cultivation of the plants was carried out under greenhouse or climatic chamber conditions. The active compounds according to the invention were applied uniformly distributed over the soil surface in an aqueous preparation after the emergence of the respective test plants. The supply of water for the plants was carrried out using the same technique, always paying attention to uniform moistness of the soil. In the case of the cultivation of legumes, defined amounts of species-specific Rhizobia were admixed to the soil. In some cases inoculation was also carried out by seed treatment.
Lucerne plants (Maricopa) were cultivated under greenhouse conditions in low N, sandy loam soil in plastic pots (750 ml) and watered from above as required. A few days after emergence the plants were thinned out to 3 plants per pot.
In 5 pots in each case 25 ml of an aqueous preparation of one concentration of 2.3.1.3 were applied by watering. 5 pots remained untreated.
25 days after treatment the following results were obtained: […]

[3] = system: Groudnuts of the variety Florigiant; assay: Field test: seed yield and seed quality in groundnuts; type: in vivo, Arachis hypogaea; settings: for Seeds of the highest quality level: relative, untreated = 100 (38.0 %); for Yield of groundnuts: untreated = 100 (45.4 dt/ha)
Description: The tests a) and b) were carried out under conditions like those in practice in 1993 on the field test site of BASF Corporation in Holly Springs, N.C., USA. This location is distinguished by a medium-heavy soil (sandy loam). Groudnuts of the variety Florigiant were used. Treatment was carried out 20, 27 and 34 days after emergence of the plants. For treatment, the soil between the rows was sprayed with an aqueous preparation of the active compound 2.3.1.3. Immediately after application the active compound was washed into the soil by spray irrigation with 20 mm of water. The spray irrigation was also used to wash off active compound which had possibly reached the leaves. Harvesting of the plants at full maturity gave the following results: […]

[4] = system: Peas (Kleine Rheinländerin); assay: Peas test 2a: biomass, root nodules, nitrogen assimilation, greenhouse; type: in vivo, Pisum sativum; settings: 3 weeks after treatment; for Dry matter (shoot + root): control 3.3; for Nodules: control 13; for Total N (total nitrogen in shoot + root): control 78.5
Description: as §2
a) Peas (Kleine Rheinländerin) were cultivated under greenhouse conditions in low N Limburgerhof soil in plastic pots (500 ml) and watered from above as required (a constant weight was maintained here). A few days after emergence the plants were thinned out to 5 plants per pot.
(§3) In four pots in each case aqueous active compound solutions of one concentration of 2.3.1.3 were applied by watering. Four pots remained untreated.
3 weeks after treatment the following results were obtained: […]

[5] = system: Peas (Field Peas VNS); assay: Peas test 2c: root nodules, root and shoot biomass, greenhouse; type: in vivo, Pisum sativum; settings: 30 days after treatment; for Nodules: untreated 6.1; for Dry matter root: untreated 275; for Dry matter shoot: untreated 459
Description: as §1, with “treatment. c) Peas (Field Peas VNS)” for “treatment. d) Soybeans (A 5403)”, “to 7” for “to 3”

[6] = system: Peas (Kleine Rheinländerin); assay: Peas test 2b: biomass and root nodules, greenhouse; type: in vivo, Pisum sativum; settings: 12 days after treatment; for Dry matter (shoot + root): control 2.55; for Nodules: control 20
Description: as §2
b) Peas (Kleine Rheinländerin) were cultivated under greenhouse conditions in low N Limburgerhof soil in plastic pots (500 ml) and watered from above as required (constant weight). A few days after emergence the plants were thinned out to 5 plants per pot.
as §3
12 days after treatment the following results were obtained: […]

[7] = 10 g/ha of a.s., treated 20 days after emergence
[8] = 10 g/ha of a.s., treated 27 days after emergence
[9] = 10 g/ha of a.s., treated 34 days after emergence
[10] = 100 g/ha of a.s., treated 20 days after emergence
[11] = 100 g/ha of a.s., treated 27 days after emergence
[12] = 100 g/ha of a.s., treated 34 days after emergence
[13] = 1000 g/ha of a.s., treated 20 days after emergence
[14] = 1000 g/ha of a.s., treated 27 days after emergence
[15] = 1000 g/ha of a.s., treated 34 days after emergence

Structure (SMILES): COC(=O)COC(=O)CON=C(C)C [active compound 2.3.1.3]
- Nodules ([1]; 3 g of a.s./ha): 47.6 number/plant
- Dry matter root ([1]; 3 g of a.s./ha): 2806 mg/plant
- Dry matter shoot ([1]; 3 g of a.s./ha): 4020 mg/plant
- Nodules ([1]; 300 g of a.s./ha): 54.9 number/plant
- Dry matter root ([1]; 300 g of a.s./ha): 1326 mg/plant
- Dry matter shoot ([1]; 300 g of a.s./ha): 4117 mg/plant
- Root nodules ([2]; 30 g of a.s./ha): 10.7 number/plant
- Dry matter shoot ([2]; 30 g of a.s./ha): 300 mg/plant
- Root nodules ([2]; 300 g of a.s./ha): 10.3 number/plant
- Dry matter shoot ([2]; 300 g of a.s./ha): 240 mg/plant
- Seeds of the highest quality level [3, 7]: 124%
- Yield of groundnuts [3, 7]: 108%
- Seeds of the highest quality level [3, 8]: 121%
- Yield of groundnuts [3, 8]: 109%
- Seeds of the highest quality level [3, 9]: 113%
- Yield of groundnuts [3, 9]: 124%
- Seeds of the highest quality level [3, 10]: 95%
- Yield of groundnuts [3, 10]: 121%
- Seeds of the highest quality level [3, 11]: 113%
- Yield of groundnuts [3, 11]: 104%
- Seeds of the highest quality level [3, 12]: 84%
- Yield of groundnuts [3, 12]: 121%
- Seeds of the highest quality level [3, 13]: 103%
- Yield of groundnuts [3, 13]: 113%
- Seeds of the highest quality level [3, 14]: 113%
- Yield of groundnuts [3, 14]: 120%
- Seeds of the highest quality level [3, 15]: 108%
- Yield of groundnuts [3, 15]: 113%
- Dry matter (shoot + root) ([4]; 0.03 mg/pot): 3.2 g/pot
- Nodules ([4]; 0.03 mg/pot): 28 number/pot
- Total N (total nitrogen in shoot + root) ([4]; 0.03 mg/pot): 75.0 mg/pot
- Dry matter (shoot + root) ([4]; 0.30 mg/pot): 4.0 g/pot
- Nodules ([4]; 0.30 mg/pot): 127 number/pot
- Total N (total nitrogen in shoot + root) ([4]; 0.30 mg/pot): 120.5 mg/pot
- Dry matter (shoot + root) ([4]; 3.00 mg/pot): 3.1 g/pot
- Nodules ([4]; 3.00 mg/pot): 99 number/pot
- Total N (total nitrogen in shoot + root) ([4]; 3.00 mg/pot): 109.5 mg/pot
- Nodules ([5]; 3 g of a.s./ha): 41.5 number/plant
- Dry matter root ([5]; 3 g of a.s./ha): 849 mg/plant
- Dry matter shoot ([5]; 3 g of a.s./ha): 1064 mg/plant
- Nodules ([5]; 30 g of a.s./ha): 39.4 number/plant
- Dry matter root ([5]; 30 g of a.s./ha): 704 mg/plant
- Dry matter shoot ([5]; 30 g of a.s./ha): 795 mg/plant
- Nodules ([5]; 300 g of a.s./ha): 56.1 number/plant
- Dry matter root ([5]; 300 g of a.s./ha): 945 mg/plant
- Dry matter shoot ([5]; 300 g of a.s./ha): 1209 mg/plant
- Dry matter (shoot + root) ([6]; 0.001 mg/pot): 2.65 g/pot
- Nodules ([6]; 0.001 mg/pot): 31 number/pot
- Dry matter (shoot + root) ([6]; 0.003 mg/pot): 3.07 g/pot
- Nodules ([6]; 0.003 mg/pot): 68 number/pot
- Dry matter (shoot + root) ([6]; 0.010 mg/pot): 3.00 g/pot
- Nodules ([6]; 0.010 mg/pot): 66 number/pot
- Dry matter (shoot + root) ([6]; 0.030 mg/pot (insect attack)): 2.32 g/pot
- Nodules ([6]; 0.030 mg/pot (insect attack)): 30 number/pot
- Dry matter (shoot + root) ([6]; 0.100 mg/pot): 2.52 g/pot
- Nodules ([6]; 0.100 mg/pot): 59 number/pot
- Dry matter (shoot + root) ([6]; 0.300 mg/pot): 3.13 g/pot
- Nodules ([6]; 0.300 mg/pot): 76 number/pot
